Laboratory results: patent US12351606B2, “Compositions and related methods for modulating transcriptional activation by incorporating gag motifs upstream of core promoter elements” (UNIVERSITY OF VIRGINIA PATENT FOUNDATION, priority 2007, dated 2025)

Tests used:
[1] = system: BY-2 cells; assay: GUS reporter activity of tetramer promoter constructs in transformed BY-2 cells with or without MeJA; assay type: cell-based, N. tabacum; details: tetramer upstream of minimal CaMV 35S -46 promoter
Procedure: Promoter constructs were produced by annealing phosphorylated upper- and lower-strand oligonucleotides to create various elements containing a SpeI restriction site at the 5′ end and an XbaI restriction site at the 3′ end. These were introduced into MS23-β-glucuronidase (“GUS”) between the SpeI and XbaI sites.
Ten colonies of transformed Agrobacteria (A. tumefaciens) containing the promoter construct were picked from a fresh plate and inoculated into 10 ml YEB, containing 50 mg/l rifampicin and 50 mg/l kanamycin, in a 50 ml flask. Cell cultures were incubated overnight at 28° C. with shaking, an overnight culture (1 ml) was taken. Cultures were diluted with YEB plus antibiotics so that the OD600 was approximately 0.3. Agrobacteria were grown at 28° C. with shaking until the OD600 was about 0.6. Cells were pelleted by centrifugation. Supernatants were removed and agrobacteria were resuspended in 0.5 ml MS. Approximately 3 ml of wild type BY-2 cells were introduced into Petri dishes. Approximately 100 μl of undiluted Agrobacteria or 1:10 or 1:100 diluted agrobacteria were mixed with the BY-2 cells to infect them. After 2 days, the BY-2 cells were washed with 30 ml MS medium and left for 30 min before the supernatant was removed. Approximately 2 ml aliquots of the transformed BY-2 cells were deposited onto MS plates containing vitamins, 50 mg/l kanamycin, and 500 mg/l cefotaxin. Transformed calli were visible after 3-5 weeks.
Single transformed calli were picked from selection plates and put on fresh MS+agar plates containing vitamins, 50 mg/l kanamycin, and 500 mg/l cefotaxin. Additionally, small amounts of calli were deposited into micro-wells (Corning 6 well culture cluster) with 6 ml MS medium containing vitamins, kanamycin, and cefotaxin. Samples in the micro-wells were grown at 28° C. for 4 days with shaking. Approximately 1 ml cells from the micro-wells were subcultured to new micro-wells with 5 ml fresh MS medium with vitamins, 50 mg/l kanamycin, and 500 mg/l cefotaxin. BY-2 cells were grown at 28° C. for 3 days with shaking. Then ten independent lines were chosen and 0.4 ml cells from each of the liquid cultures were subcultured to a 250 ml Erlenmeyer flask with 45 ml MS medium, vitamins, 50 mg/l kanamycin, and 500 mg/l cefotaxin. Cells were grown at 28° C. for 2 days with shaking. Then 10 ml cells from each flask were introduced into new 250 ml Erlenmeyer flasks with 40 ml MS medium containing vitamins without hormones (−2.4D) and antibiotics. The BY-2 cells were grown at 28° C. for 1 day with shaking. After 1 day BY-2 cells were treated with different amounts of methyl jasmonate (MeJA).
(§1) Histochemical staining for GUS activity and GUS activity determination was performed as described by Jefferson (1987).
An improved method for the analysis of promoter activity in BY-2 cells was developed. Transformed BY-2 calli were grown on selection plates and subsequently grown as liquid cultures in MS medium. For each individual construct ten independent lines were chosen. Approximately 0.5 ml cells from each of the liquid cultures were subcultured together in MS medium that contain vitamins, kanamycin, and cefotaxin. After 2 days, the cells were diluted in fresh MS medium containing vitamins without hormones (−2.4D) to reduce any stress response induced by cell density, and to deplete the medium of auxin. It has been shown previously that high auxin levels in the medium decreased the extent of MeJA-induced NtPMT:GUS expression (Xu and Timko, 2004). After 1 day BY-2 cells were treated with 100 μM MeJA. After 48 hours cell samples were taken, and were used to determine the GUS activity. For statistical analysis, each experiment was repeated four times and to avoid day to day variation in the GUS activities, and the data were normalized. These cell culture conditions ensured both a rapid and uniform response to MeJA.

[2] = system: tobacco plants; assay: Histochemical GUS staining of transgenic tobacco plants after wounding or MeJA; assay type: in vivo, N. tabacum; details: tetramer constructs, GUS staining after 72 hours
Procedure: as §1
Ten colonies of the transformed Agrobacteria containing a promoter construct of interest were picked from a fresh plate and inoculated into 10 ml YEB, containing 50 mg/l rifampicin, and 50 mg/l kanamycin, in a 50 ml flask. Cell cultures were incubated overnight at 28° C. with shaking. Approximately 1 ml of overnight culture was taken. Cultures were diluted with 50 ml YEB plus antibiotics so that the OD600 was approximately 0.3. Agrobacteria were grown at 28° C. with shaking until the OD600 was approximately 0.6. The cells were then pelleted by centrifugation. Supernatants were removed and Agrobacteria were resuspended in 40 ml fresh YEB by pipetting with a 1 ml tip. Wild type tobacco leaves were cut into small pieces under sterile conditions and put in a 50 ml beaker. Agrobacteria solution was poured onto the tobacco leaves and the mixture was swirled together and left for 5 min for the Agrobacteria to infect the leaves. Infected leaves were put on MS plates with filter paper (to limit Agrobacteria grow). […] Plates were left for 2 days in the dark. After 2 days the tobacco pieces were transferred onto MS plates containing 1 mg/l 6 BA, 500 mg/l cefotaxin and 100 mg/l kanamycin. Samples were left in the light at 28° C. […]

Molecule: AT-rich element: SEQ ID NO:3; tetramer in front of minimal CaMV 35S -46 promoter (DNA TAATGAATTTTTAACTATTATATTATAT; expressed or natural sequence; listed as Nicotiana tabacum)
- promoter activity / promoter strength [1]: only low level promoter activity
- response of GUS expression to MeJA treatment ([1]; 100 μM MeJA, 48 hours): characteristic reduction in promoter activity after MeJA addition

Molecule: G Box-like element: SEQ ID NO:2 (GCACGTTG); tetramer in front of minimal CaMV 35S -46 promoter (expressed or natural sequence; listed as Nicotiana tabacum)
- promoter activity / promoter strength [1]: Low promoter activity
- response of GUS expression to MeJA treatment ([1]; 100 μM MeJA, 48 hours): characteristic reduction after MeJA exposure

Molecule: GCC-like box: SEQ ID NO:4; tetramer in front of minimal CaMV 35S -46 promoter (DNA TGCGCCCTCCACTCCTCGGTGTCCA; expressed or natural sequence; listed as Nicotiana tabacum)
- promoter activity / promoter strength [1]: only low level promoter activity
- response of GUS expression to MeJA treatment ([1]; 100 μM MeJA, 48 hours): characteristic reduction in every line tested after MeJA addition

B1: GAG motif: SEQ ID NO:1 regulatory region of NtPMT1a promoter: G-box like, AT-rich and GCC-like box elements; tested as tetramer before CaMV 35S -46::GUS (nucleic acid, listed as Nicotiana tabacum)
DNA: CTAACCCTGCACGTTGTAATGAATTTTTAACTATTATATTATATCGAGTTGCGCCCTCCACTCCTCGGTGTCCA
modifications: expressed or natural sequence
notes: tested as tetramer before CaMV 35S -46::GUS
- promoter activity / promoter strength [1]: much stronger than the G Box-GCC element
- MeJA inducibility of GUS expression (relative fold inducibility) ([1]; 100 μM MeJA, 48 hours): approximately 35 fold
- MeJA-inducible expression in roots ([2]; 25 μM MeJA): showed inducibility by MeJA
- wound-inducible expression in roots ([2]; wounding of roots or leaves): can direct wound-inducible expression
